{
  "source": "BindingDB's records for doi:10.1111/cbdd.12596",
  "about": "(Nanjing University, 2015)",
  "assay_in_all_cases": "VEGFR2 Kinase Assay",
  "settings_in_all_cases": "pH 7.2; 25 °C",
  "key": {"[1]": {"biological_target": "Vascular endothelial growth factor receptor 2 (Homo sapiens, UniProt P35968)", "sequence (P35968 whole entry, the tested form may be a part)": "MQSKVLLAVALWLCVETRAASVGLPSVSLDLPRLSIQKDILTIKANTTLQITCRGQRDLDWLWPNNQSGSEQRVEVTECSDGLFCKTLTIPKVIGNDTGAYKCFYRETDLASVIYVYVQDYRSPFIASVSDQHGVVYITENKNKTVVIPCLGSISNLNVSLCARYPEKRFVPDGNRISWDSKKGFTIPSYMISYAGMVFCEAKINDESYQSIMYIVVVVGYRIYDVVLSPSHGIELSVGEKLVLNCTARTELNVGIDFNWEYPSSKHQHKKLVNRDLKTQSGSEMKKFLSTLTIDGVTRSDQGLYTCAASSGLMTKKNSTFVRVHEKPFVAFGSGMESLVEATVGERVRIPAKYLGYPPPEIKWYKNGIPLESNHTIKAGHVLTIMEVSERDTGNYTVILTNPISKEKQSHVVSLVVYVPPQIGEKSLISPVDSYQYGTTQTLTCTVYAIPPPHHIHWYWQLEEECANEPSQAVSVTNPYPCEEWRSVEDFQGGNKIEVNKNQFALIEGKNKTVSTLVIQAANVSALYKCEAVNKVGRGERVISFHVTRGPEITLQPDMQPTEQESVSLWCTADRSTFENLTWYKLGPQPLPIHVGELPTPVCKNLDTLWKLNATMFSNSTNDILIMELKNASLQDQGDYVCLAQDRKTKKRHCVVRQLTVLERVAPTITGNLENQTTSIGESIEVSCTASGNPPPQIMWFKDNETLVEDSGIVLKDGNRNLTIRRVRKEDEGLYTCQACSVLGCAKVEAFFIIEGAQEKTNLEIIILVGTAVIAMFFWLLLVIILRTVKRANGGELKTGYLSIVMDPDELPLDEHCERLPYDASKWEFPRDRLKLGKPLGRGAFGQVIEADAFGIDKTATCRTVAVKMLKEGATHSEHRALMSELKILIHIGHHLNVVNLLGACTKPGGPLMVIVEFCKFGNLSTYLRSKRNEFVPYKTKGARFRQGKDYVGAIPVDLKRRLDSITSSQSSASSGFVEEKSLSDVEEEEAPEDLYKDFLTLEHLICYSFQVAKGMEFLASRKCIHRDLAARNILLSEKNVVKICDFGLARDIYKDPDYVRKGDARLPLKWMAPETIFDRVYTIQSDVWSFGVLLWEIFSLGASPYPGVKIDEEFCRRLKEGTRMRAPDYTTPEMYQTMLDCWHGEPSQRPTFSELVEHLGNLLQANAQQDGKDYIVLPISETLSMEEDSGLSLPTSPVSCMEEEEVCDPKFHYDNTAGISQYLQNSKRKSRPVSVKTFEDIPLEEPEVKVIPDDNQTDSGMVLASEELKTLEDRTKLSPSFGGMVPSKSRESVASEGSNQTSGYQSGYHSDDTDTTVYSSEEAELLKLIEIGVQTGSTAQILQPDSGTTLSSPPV", "procedure": "VEGFR kinase assays were set up to assess the level of autophosphorylation based on DELFIA/Time-Resolved Fluorometry. 96-well plates were coated at room temperature for 1-2 h with 100 μL per well of 25 μg mL−1 poly-(Glu4-Tyr) peptide (Sigma) in Tris-buffered saline (TBS) (25 mM Tris, pH 7.2, 150 mM NaCl). Unbound peptide was washed three times with PBS. The cytoplasmic domain of VEGFR-2 enzyme was diluted (depending on the specific activity of the batch, from 10- to 20-fold) in 0.1% BSA/4 mM HEPES. […] Controls were done by adding DMSO alone, i.e., no test compound, to wells containing the master mix of enzyme plus kinase buffer. After 15 min at room temperature, ATP/MgCl2 (20 μL of"}, "[2]": {"biological_target": "Fibroblast growth factor 2 (Homo sapiens, UniProt P09038)"}, "[3]": {"biological_target": "Epidermal growth factor receptor (Homo sapiens, UniProt P00533)", "sequence (P00533 whole entry)": "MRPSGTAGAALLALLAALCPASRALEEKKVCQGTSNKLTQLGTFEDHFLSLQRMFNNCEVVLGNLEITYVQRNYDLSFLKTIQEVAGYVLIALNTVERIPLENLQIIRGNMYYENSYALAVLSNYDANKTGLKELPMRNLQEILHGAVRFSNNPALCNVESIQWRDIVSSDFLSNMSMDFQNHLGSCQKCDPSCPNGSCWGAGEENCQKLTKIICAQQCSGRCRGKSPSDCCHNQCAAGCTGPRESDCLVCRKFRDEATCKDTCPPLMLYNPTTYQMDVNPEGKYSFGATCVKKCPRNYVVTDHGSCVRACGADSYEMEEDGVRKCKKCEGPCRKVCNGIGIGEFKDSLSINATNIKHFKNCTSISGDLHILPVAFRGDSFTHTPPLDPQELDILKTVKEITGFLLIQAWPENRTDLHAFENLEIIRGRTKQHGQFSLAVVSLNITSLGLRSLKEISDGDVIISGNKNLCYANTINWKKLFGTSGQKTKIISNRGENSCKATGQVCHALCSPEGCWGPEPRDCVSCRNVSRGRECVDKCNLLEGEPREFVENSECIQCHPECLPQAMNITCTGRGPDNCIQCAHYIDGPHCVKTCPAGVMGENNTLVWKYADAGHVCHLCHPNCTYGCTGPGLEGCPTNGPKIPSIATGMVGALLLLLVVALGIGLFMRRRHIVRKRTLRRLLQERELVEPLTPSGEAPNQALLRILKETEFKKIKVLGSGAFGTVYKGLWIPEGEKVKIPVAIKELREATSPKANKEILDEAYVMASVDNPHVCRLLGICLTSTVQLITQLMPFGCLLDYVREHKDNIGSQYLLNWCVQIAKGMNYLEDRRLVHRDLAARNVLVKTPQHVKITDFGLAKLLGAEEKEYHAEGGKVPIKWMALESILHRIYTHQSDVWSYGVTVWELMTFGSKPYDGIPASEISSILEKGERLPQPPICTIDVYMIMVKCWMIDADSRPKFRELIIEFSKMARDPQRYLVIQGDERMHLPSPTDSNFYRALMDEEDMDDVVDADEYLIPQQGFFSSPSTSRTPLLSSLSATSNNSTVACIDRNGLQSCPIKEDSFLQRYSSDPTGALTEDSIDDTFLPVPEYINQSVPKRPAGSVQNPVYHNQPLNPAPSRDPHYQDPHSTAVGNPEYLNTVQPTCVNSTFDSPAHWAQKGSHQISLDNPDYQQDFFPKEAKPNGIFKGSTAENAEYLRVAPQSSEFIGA"}},
  "data": [
    {"smiles": "OC(COc1ncnc2ccccc12)Cn1ccnc1", "note": "(configuration not stated) [1-(1H-Imidazol-1-yl)-3-(quinazolin-4-yloxy)propan-2-ol (3t)]", "values": [
      {"measurement": "IC50", "setting": "[1]", "value": 84.3, "unit": "nM"},
      {"measurement": "IC50", "setting": "[2]", "value": 609, "unit": "nM"},
      {"measurement": "IC50", "setting": "[3]", "value": 483, "unit": "nM"}
    ]},
    {"smiles": "Cc1nccn1CC(O)COc1ncnc2ccccc12", "note": "(configuration not stated) [1-(2-Methyl-1H-imidazol-1-yl)-3-(quinazolin-4-yloxy)propan-2-ol (3u)]", "values": [
      {"measurement": "IC50", "setting": "[1]", "value": 55.7, "unit": "nM"},
      {"measurement": "IC50", "setting": "[2]", "value": 586, "unit": "nM"},
      {"measurement": "IC50", "setting": "[3]", "value": 444, "unit": "nM"}
    ]},
    {"smiles": "OC(COc1ncnc2ccccc12)CN1CCN(c2cccc(Cl)c2Cl)CC1", "note": "(configuration not stated) [1-(4-(2,3-Dichlorophenyl)piperazin-1-yl)-3-(quinazolin-4-yloxy)propan-2-ol (3k)]", "values": [
      {"measurement": "IC50", "setting": "[1]", "value": 47.7, "unit": "nM"},
      {"measurement": "IC50", "setting": "[2]", "value": 398, "unit": "nM"},
      {"measurement": "IC50", "setting": "[3]", "value": 409, "unit": "nM"}
    ]},
    {"smiles": "Cc1ccc(N2CCN(CC(O)COc3ncnc4ccccc34)CC2)c(C)c1", "note": "(configuration not stated) [1-(4-(2,4-Dimethylphenyl)piperazin-1-yl)-3-(quinazolin-4-yloxy)propan-2-ol (3m)]", "values": [
      {"measurement": "IC50", "setting": "[1]", "value": 12.4, "unit": "nM"},
      {"measurement": "IC50", "setting": "[2]", "value": 222, "unit": "nM"},
      {"measurement": "IC50", "setting": "[3]", "value": 395, "unit": "nM"}
    ]},
    {"smiles": "OC(COc1ncnc2ccccc12)CN1CCN(c2ccccc2Cl)CC1", "note": "(configuration not stated) [1-(4-(2-Chlorophenyl)piperazin-1-yl)-3-(quinazolin-4-yloxy)propan-2-ol (3b)]", "values": [
      {"measurement": "IC50", "setting": "[1]", "value": 49.8, "unit": "nM"},
      {"measurement": "IC50", "setting": "[2]", "value": 506, "unit": "nM"},
      {"measurement": "IC50", "setting": "[3]", "value": 418, "unit": "nM"}
    ]},
    {"smiles": "OC(COc1ncnc2ccccc12)CN1CCN(c2ccccc2F)CC1", "note": "(configuration not stated) [1-(4-(2-Fluorophenyl)piperazin-1-yl)-3-(quinazolin-4-yloxy)propan-2-ol (3d)]", "values": [
      {"measurement": "IC50", "setting": "[1]", "value": 34.7, "unit": "nM"},
      {"measurement": "IC50", "setting": "[2]", "value": 372, "unit": "nM"},
      {"measurement": "IC50", "setting": "[3]", "value": 409, "unit": "nM"}
    ]},
    {"smiles": "COc1ccccc1N1CCN(CC(O)COc2ncnc3ccccc23)CC1", "note": "(configuration not stated) [1-(4-(2-Methoxyphenyl)piperazin-1-yl)-3-(quinazolin-4-yloxy)propan-2-ol (3g)]", "values": [
      {"measurement": "IC50", "setting": "[1]", "value": 9.98, "unit": "nM"},
      {"measurement": "IC50", "setting": "[2]", "value": 209, "unit": "nM"},
      {"measurement": "IC50", "setting": "[3]", "value": 357, "unit": "nM"}
    ]},
    {"smiles": "OC(COc1ncnc2ccccc12)CN1CCN(c2ccc(Cl)c(Cl)c2)CC1", "note": "(configuration not stated) [1-(4-(3,4-Dichlorophenyl)piperazin-1-yl)-3-(quinazolin-4-yloxy)propan-2-ol (3l)]", "values": [
      {"measurement": "IC50", "setting": "[1]", "value": 8.42, "unit": "nM"},
      {"measurement": "IC50", "setting": "[2]", "value": 178, "unit": "nM"},
      {"measurement": "IC50", "setting": "[3]", "value": 344, "unit": "nM"}
    ]},
    {"smiles": "OC(COc1ncnc2ccccc12)CN1CCN(c2cccc(C(F)(F)F)c2)CC1", "note": "(configuration not stated) [1-(4-(3-(Trifluoromethyl)phenyl)piperazin-1-yl)-3-(quinazolin-4-yloxy)propan-2-ol (3j)]", "values": [
      {"measurement": "IC50", "setting": "[1]", "value": 4.98, "unit": "nM"},
      {"measurement": "IC50", "setting": "[2]", "value": 145, "unit": "nM"},
      {"measurement": "IC50", "setting": "[3]", "value": 307, "unit": "nM"}
    ]},
    {"smiles": "OC(COc1ncnc2ccccc12)CN1CCN(c2cccc(Cl)c2)CC1", "note": "(configuration not stated) [1-(4-(3-Chlorophenyl)piperazin-1-yl)-3-(quinazolin-4-yloxy)propan-2-ol (3c)]", "values": [
      {"measurement": "IC50", "setting": "[1]", "value": 47.4, "unit": "nM"},
      {"measurement": "IC50", "setting": "[2]", "value": 402, "unit": "nM"},
      {"measurement": "IC50", "setting": "[3]", "value": 413, "unit": "nM"}
    ]},
    {"smiles": "COc1cccc(N2CCN(CC(O)COc3ncnc4ccccc34)CC2)c1", "note": "(configuration not stated) [1-(4-(3-Methoxyphenyl)piperazin-1-yl)-3-(quinazolin-4-yloxy)propan-2-ol (3h)]", "values": [
      {"measurement": "IC50", "setting": "[1]", "value": 2.89, "unit": "nM"},
      {"measurement": "IC50", "setting": "[2]", "value": 103, "unit": "nM"},
      {"measurement": "IC50", "setting": "[3]", "value": 208, "unit": "nM"}
    ]},
    {"smiles": "OC(COc1ncnc2ccccc12)CN1CCN(c2ccc(F)cc2)CC1", "note": "(configuration not stated) [1-(4-(4-Fluorophenyl)piperazin-1-yl)-3-(quinazolin-4-yloxy)propan-2-ol (3e)]", "values": [
      {"measurement": "IC50", "setting": "[1]", "value": 21.8, "unit": "nM"},
      {"measurement": "IC50", "setting": "[2]", "value": 300, "unit": "nM"},
      {"measurement": "IC50", "setting": "[3]", "value": 403, "unit": "nM"}
    ]},
    {"smiles": "COc1ccc(N2CCN(CC(O)COc3ncnc4ccccc34)CC2)cc1", "note": "(configuration not stated) [1-(4-(4-Methoxyphenyl)piperazin-1-yl)-3-(quinazolin-4-yloxy)propan-2-ol (3i)]", "values": [
      {"measurement": "IC50", "setting": "[1]", "value": 3.42, "unit": "nM"},
      {"measurement": "IC50", "setting": "[2]", "value": 122, "unit": "nM"},
      {"measurement": "IC50", "setting": "[3]", "value": 276, "unit": "nM"}
    ]},
    {"smiles": "O=[N+]([O-])c1ccc(N2CCN(CC(O)COc3ncnc4ccccc34)CC2)cc1", "note": "(configuration not stated) [1-(4-(4-Nitrophenyl)piperazin-1-yl)-3-(quinazolin-4-yloxy)propan-2-ol (3f)]", "values": [
      {"measurement": "IC50", "setting": "[1]", "value": 16.5, "unit": "nM"},
      {"measurement": "IC50", "setting": "[2]", "value": 248, "unit": "nM"},
      {"measurement": "IC50", "setting": "[3]", "value": 382, "unit": "nM"}
    ]},
    {"smiles": "OC(COc1ncnc2ccccc12)CN1CCN(Cc2ccccc2)CC1", "note": "(configuration not stated) [1-(4-Benzylpiperazin-1-yl)-3-(quinazolin-4-yloxy)propan-2-ol (3n)]", "values": [
      {"measurement": "IC50", "setting": "[1]", "value": 52.2, "unit": "nM"},
      {"measurement": "IC50", "setting": "[2]", "value": 444, "unit": "nM"},
      {"measurement": "IC50", "setting": "[3]", "value": 435, "unit": "nM"}
    ]},
    {"smiles": "CCN1CCN(CC(O)COc2ncnc3ccccc23)CC1", "note": "(configuration not stated) [1-(4-Ethylpiperazin-1-yl)-3-(quinazolin-4-yloxy)propan-2-ol (3p)]", "values": [
      {"measurement": "IC50", "setting": "[1]", "value": 54.4, "unit": "nM"},
      {"measurement": "IC50", "setting": "[2]", "value": 519, "unit": "nM"},
      {"measurement": "IC50", "setting": "[3]", "value": 462, "unit": "nM"}
    ]},
    {"smiles": "Cc1cn(CC(O)COc2ncnc3ccccc23)cn1", "note": "(configuration not stated) [1-(4-Methyl-1H-imidazol-1-yl)-3-(quinazolin-4-yloxy)propan-2-ol (3v)]", "values": [
      {"measurement": "IC50", "setting": "[1]", "value": 74.2, "unit": "nM"},
      {"measurement": "IC50", "setting": "[2]", "value": 592, "unit": "nM"},
      {"measurement": "IC50", "setting": "[3]", "value": 452, "unit": "nM"}
    ]},
    {"smiles": "CN1CCN(CC(O)COc2ncnc3ccccc23)CC1", "note": "(configuration not stated) [1-(4-Methylpiperazin-1-yl)-3-(quinazolin-4-yloxy)propan-2-ol (3o)]", "values": [
      {"measurement": "IC50", "setting": "[1]", "value": 59.3, "unit": "nM"},
      {"measurement": "IC50", "setting": "[2]", "value": 419, "unit": "nM"},
      {"measurement": "IC50", "setting": "[3]", "value": 474, "unit": "nM"}
    ]},
    {"smiles": "OC(COc1ncnc2ccccc12)CN1CCN(c2ccccc2)CC1", "note": "(configuration not stated) [1-(4-Phenylpiperazin-1-yl)-3-(quinazolin-4-yloxy)propan-2-ol (3a)]", "values": [
      {"measurement": "IC50", "setting": "[1]", "value": 32.6, "unit": "nM"},
      {"measurement": "IC50", "setting": "[2]", "value": 293, "unit": "nM"},
      {"measurement": "IC50", "setting": "[3]", "value": 400, "unit": "nM"}
    ]},
    {"smiles": "CN(C)CC(O)COc1ncnc2ccccc12", "note": "(configuration not stated) [1-(Dimethylamino)-3-(quinazolin-4-yloxy)propan-2-ol (3q)]", "values": [
      {"measurement": "IC50", "setting": "[1]", "value": 63, "unit": "nM"},
      {"measurement": "IC50", "setting": "[2]", "value": 582, "unit": "nM"},
      {"measurement": "IC50", "setting": "[3]", "value": 455, "unit": "nM"}
    ]},
    {"smiles": "OC(COc1ncnc2ccccc12)CN1CCCCC1", "note": "(configuration not stated) [1-(Piperidin-1-yl)-3-(quinazolin-4-yloxy)propan-2-ol (3s)]", "values": [
      {"measurement": "IC50", "setting": "[1]", "value": 78.5, "unit": "nM"},
      {"measurement": "IC50", "setting": "[2]", "value": 593, "unit": "nM"},
      {"measurement": "IC50", "setting": "[3]", "value": 474, "unit": "nM"}
    ]},
    {"smiles": "OC(COc1ncnc2ccccc12)CN1CCOCC1", "note": "(configuration not stated) [1-Morpholino-3-(quinazolin-4-yloxy)propan-2-ol (3r)]", "values": [
      {"measurement": "IC50", "setting": "[1]", "value": 81.7, "unit": "nM"},
      {"measurement": "IC50", "setting": "[2]", "value": 602, "unit": "nM"},
      {"measurement": "IC50", "setting": "[3]", "value": 483, "unit": "nM"}
    ]},
    {"smiles": "COc1cc2nccc(Oc3ccc(NC(=O)Nc4cc(C)on4)c(Cl)c3)c2cc1OC", "note": "[Tivozanib]", "values": [
      {"measurement": "IC50", "setting": "[2]", "value": 114, "unit": "nM"}
    ]}
  ]
}
